From patent US9745275B2, “Pain-related compound and medical composition” (KYOTO UNIVERSITY, priority 2013, dated 2017)

Assays:
Format in all cases: in vivo, mouse
[1] = tested on: carrageenan-induced inflammatory pain model mice; assay: latency of withdrawal reflex to thermal stimulation (thermal hyperalgesia) in carrageenan-induced inflammatory pain model mice; conditions: given 6 h after carrageenan; for suppression of thermal hyperalgesia: intrathecal, examined over three hours (compound 2: 0.1, 1 or 10 pmol)
Procedure: Before and after carrageenan (2%, 25 μl) was subcutaneously administered to a one-side hind limb sole of each mouse (male, C57BL/6J, ([…]), thermal stimulation was applied, and latency of a withdrawal reflex behavior of the hind limb was measured. The appearance of the phenomenon of thermal hyperalgesia due to carrageenan was checked over six hours after the administration, and thereafter, the compound 1 or a solvent used for dissolution (veh.) was administered orally (1 pmol or 10 pmol per 1 g of the mouse body). Effects were examined over two hours thereafter. The results are illustrated in FIG. 2.
Before and after carrageenan (2%, 25 μl) was subcutaneously administered to a one-side hind limb sole of each mouse (male, C57BL/6J, 6 to 8 weeks old), mechanical stimulation or thermal stimulation was applied, and threshold (mechanical stimulation) and latency (thermal stimulation) of a withdrawal reflex behavior of the hind limb were measured. The appearance of the phenomenon of mechanical allodynia or the appearance of thermal hyperalgesia due to carrageenan was checked over six hours after the administration, and thereafter, the compound 2 was administered intrathecally (0.1 pmol, 1 pmol, or 10 pmol). Effects were examined over three hours thereafter. The solution of the compound 2 was prepared by dissolving the compound 2 in 99% DMSO, and diluting the same with physiological saline solution (0.2% DMSO in physiological saline solution).
Before and after carrageenan (2%, 25 μl) was subcutaneously administered to a one-side hind limb sole of each mouse (male, C57BL/6J, 6 to 8 weeks old), mechanical stimulation or thermal stimulation was applied, and threshold (mechanical stimulation) and latency (thermal stimulation) of a withdrawal reflex behavior of the hind limb were measured. The appearance of the phenomenon of mechanical allodynia or the appearance of the thermal hyperalgesia due to carrageenan was checked over six hours after the administration, and thereafter, the compound 4 was administered intrathecally. Effects were examined over three hours thereafter. The solution of the compound 4 was prepared by dissolving the […] in 99% DMSO, and diluting the same with physiological saline solution (0.2% DMSO in physiological saline solution). The results are illustrated in FIG. 5.
Before and after carrageenan (2%, 25 μl) was subcutaneously administered to a one-side hind limb sole of each mouse (male, C57BL/6J, 6 to 8 weeks old), thermal stimulation was applied, and latency of a withdrawal reflex behavior of the hind limb was measured. The appearance of the phenomenon of thermal hyperalgesia due to carrageenan was checked over six hours after the administration, and thereafter, the compound 5 was administered intrathecally. Effects were examined over three hours thereafter. The solution of the compound 5 was prepared by dissolving the compound 5 in 99% DMSO, and diluting the same with physiological saline solution (0.2% DMSO in physiological saline solution). The results are illustrated in FIG. 6.
Before and after carrageenan (2%, 25 μl) was subcutaneously administered to a one-side hind limb sole of each mouse (male, C57BL/6J, 6 to 8 weeks old), thermal stimulation was applied, and latency of a withdrawal reflex behavior of the hind limb was measured. […]

[2] = tested on: carrageenan-induced inflammatory pain model mice; assay: von Frey test with simultaneous administration of compound and opioid antagonist in carrageenan-induced inflammatory pain model mice; conditions: intraperitoneal, compound 1 nmol/g plus opioid antagonist 20 nmol/g, 7 h after carrageenan, evaluated at 1 h and 3 h
Procedure: Carrageenan was subcutaneously injected to a hind limb sole of each mouse, and seven hours later, the compound 1 and an opioid antagonist were simultaneously administered intraperitoneally. At one hour after the administration and at three hours after the administration, therapeutic effects with respect to mechanical allodynia were evaluated. Specific conditions were as follows.
Mouse: C57B116J, male, 8 weeks old
Induction of pain: Pain was induced by subcutaneously injecting 20 μL of physiological saline solution containing 2% λ-carrageenan to a hind limb sole.
Administration of therapeutic agent: 1% Tween80 (trademark) physiological saline solution containing 2% DMSO in which the compound 1 and an opioid antagonist described below were dissolved was administered intraperitoneally, in an amount of 0.01 mL per 1 g of the body weight (about 0.2 mL of the solution was administered per one mouse). The compound 1 was prepared so as to be 1 nmol per 1 g of the body weight of the mouse. The opioid antagonist was prepared so as to be 20 nmol per 1g of the body weight of the mouse.
Opioid antagonist MNTX: Methylnaltrexone bromide Antagonist selective to a […]. Unable to pass through the blood-brain barrier.
Opioid antagonist NAL-M: Naloxone methioclide Antagonist not selective to an opioid receptor. Unable to pass through the blood-brain barrier. […]

[3] = tested on: carrageenan-induced inflammatory pain model mice; assay: von Frey test, mechanical allodynia in carrageenan-induced inflammatory pain model mice; conditions: for threshold of withdrawal reflex behavior to mechanical stimulation (FIG. 3A, FIG. 5A): intrathecal, given 6 h after carrageenan, examined over three hours (compound 2: 0.1, 1 or 10 pmol)
Procedure: After subcutaneous plantar administration of carrageenan, acute inflammation develops over several hours, which causes a phenomenon of hypersensitivity to mechanical stimulation and thermal stimulation. A therapeutic agent containing the compound 1 as an active ingredient was administered to each of model mice of this carrageenan-induced inflammatory pain, and pain was evaluated.
More specifically, at seven hours after carrageenan was subcutaneously administered to a hind limb sole of each mouse (male, C57BL/6J, 6 to 8 weeks old), the compound 1 was administered orally, and at one hour after the administration of the compound 1, therapeutic effects thereof with respect to mechanical allodynia were determined. Specific conditions are as follows.
Mouse: C57BL/6J, male, 8 weeks old, n =4 (each foot, n=8) Induction of pain: 25 μL of physiological saline solution containing 2% of λ-carrageenan was injected subcutaneously to hind limb soles, so that pain was induced. […]
Evaluation of pain: Evaluation was performed by von Frey test. More specifically, a hind limb sole of the mouse was mechanically stimulated with tips of von-Frey filaments having a variety of thicknesses, and a load of stimulation at which the mouse initiated a withdrawal behavior was determined. […]
(§1) Before and after carrageenan (2%, 25 μl) was subcutaneously administered to a one-side hind limb sole of each mouse (male, C57BL/6J, 6 to 8 weeks old), mechanical stimulation or thermal stimulation was applied, and threshold (mechanical stimulation) and latency (thermal stimulation) of a withdrawal reflex behavior of the hind limb were measured. […]
as §1

[4] = tested on: complete Freund's adjuvant-induced inflammatory pain model mice; assay: threshold of withdrawal reflex to mechanical stimulation in complete Freund's adjuvant-induced inflammatory pain model mice; conditions: intrathecal, three days after CFA, examined over three hours
Procedure: Subcutaneous plantar administration of complete Freund's adjuvant (CFA) caused prolonged inflammation, which was more persistent than the inflammation caused in the carrageenan models, and this caused phenomena of hypersensitivity to mechanical stimulation and thermal stimulation. Using these CFA model mice, pain therapy effects of the compound 3 were evaluated. Before and after CFA (25 μl) was subcutaneously administered to a one-side hind limb sole of each mouse (male, C57BL/6J, 6 to 8 weeks old), mechanical stimulation was applied, and threshold of a withdrawal reflex behavior of the hind limb was measured. The appearance of the phenomenon of mechanical allodynia due to CFA was checked three days after the administration, and the compound 3 was administered intrathecally. Effects were examined over three hours thereafter. The solution of the compound 3 was prepared by dissolving the compound 3 in 99% DMSO, and diluting the same with physiological saline solution (0.2% DMSO in physiological saline solution). The results are illustrated in FIG. 4.

| SMILES | suppression of thermal hyperalgesia [1] | threshold of withdrawal reflex behavior to mechanical stimulation (FIG. 3A, FIG. 5A) [3] | further results |
| --- | --- | --- | --- |
| CCN1/C(=C/C(C)=O)Sc2ccc(F)cc21 [compound 1, (1Z)-1-(3-ethyl-5-fluoro-2(3H)-benzothiazolylidene)-2-propanone] | – | – | therapeutic effect on thermal hyperalgesia (latency of withdrawal reflex to thermal stimulation), FIG. 2 ([1]; oral, 1 pmol or 10 pmol per 1 g of mouse body, examined over two hours): significantly reduced; analgesic action on mechanical allodynia with simultaneous opioid antagonist (MNTX or NAL-M), FIG. 8 [2]: hindered by a peripheral opioid antagonist; therapeutic effect on mechanical allodynia (threshold load of withdrawal behavior, von Frey filaments), FIG. 1 ([3]; oral, 1 nmol per 1 g body weight, 7 h after carrageenan, evaluated 1 h after administration, C57BL/6J male mice): significantly reduced |
| CCN1/C(=C/C(C)=O)Sc2ccc(OC)cc21 [compound 2] | significantly reduced | significantly reduced | – |
| CCN1/C(=C/C(C)=O)Sc2cc(OC)ccc21 [compound 3, (1Z)-1-(3-ethyl-6-methoxy-2(3H)-benzothiazoylidene)-2-propanone] | – | – | threshold of withdrawal reflex behavior to mechanical stimulation, FIG. 4 [4]: significantly suppressed |
| CCN1/C(=C/C(C)=O)Sc2c(OC)cccc21 [compound 4] | significantly suppressed | significantly suppressed | – |
| CCN1/C(=C/C(C)=O)Sc2ccc(Br)cc21 [compound 5, (1Z)-1-(5-bromo-3-ethyl-2(3H)-benzothiazoylidene)-2-propanone] | significantly suppressed | – | – |
| CCN1/C(=C/C(C)=O)Sc2ccc(Cl)cc21 [compound 6, (1Z)-1-(5-chloro-3-ethyl-2(3H)-benzothiazoylidene)propan-2-one] | significantly suppressed | – | – |
